The values below come from US5108990A, “Glutamic acid derivatives” (Roussel Uclaf, priority 1987, dated 1992).

One experiment deals with human B lymphocytes. Briefly: Production of immuno-globulins (ELISA of supernatants, alone or with Staphylococcus aureus Cowan). Type of experiment: cell-based. The conditions noted are these: in the presence of SAC (10^-3 and 10^-4); 0.1, 1 and 10 μg/ml; one week. As to the method:
The same cells were cultivated for a week in the presence of different products to be tested at a dose of 0.1, 1 and 10 μg/ml alone or in the presence of two doses of the bacteria Staphylococcus aureus Cowan (SAC) (10^-3 and 10^-4), bacteria known for stimulating the production of immuno-globulins by the human B lymphocytes in a non-specific manner. The supernatants are collected at the end of the culture, and their content of immuno-globulin is evaluated by standard techniques of detection by the ELISA method using a human anti-immunoglobulin anti-body available commercially. The results are given in ng of immuno-globulin per ml of supernatant.
(ELISA stands for enzyme-linked immunosorbent assay.)

For experiment [1], the system named is monocytes. Briefly: Stimulation of monocytic cells; Interleukin-1 (IL-1) test on supernatants/lysates (mouse thymocyte co-mitogenic assay). Type of experiment: cell-based, human. The conditions noted are these: for stimulation of monocytes and their IL-1 production: adherent blood monocytes cultured 24 or 48 hours with test product; for synergy with interferon-γ and or LPS: monocyte stimulation (IL-1 and TNF production), IFN-γ 10^3 U/ml, a dose inactive alone. How it is done:
(§1) The mononuclear cells of the circulating blood of normal donors were separated by the classical technique described by Boyum using a Ficoll gradient. After being washed, the mononuclear cells were incubated at 37° C. for 1 hour in the proportion of 5×10^6 monocytes (NSE^+ cells) per ml of culture medium, 5 ml per culture bottle. The culture medium used in this experiment was composed of RPMI 1640 to which antibiotics and HEPES buffer had been added. After one hour, the non-adherent cells were removed by washing the bottles with medium previously brought to 37° C., and the adherent cells, composed essentially of monocytes (>90%), were cultured again in the presence of different amounts of test products in a PBS medium (Dulbecco) without Ca^2+ or Mg^2+. Culturing was continued for 24 or 48 hours and the cell supernatants were then withdrawn, centrifuged, aliquoted and stored either at -80° C. or at -20° C. The culture supernatants were replaced in the bottles by the same amount of pyrogen-free distilled water to lyse the cells. The lysate was recovered, aliquoted and also stored at -20° C.
(§2) Tests for the presence in the supernants of monokines (interleukin-1 and tumor necrosis factor) on the basis of their biological activity.
This test was first described by Gery et al in 1972 [Gery et al, 1972 Potentiation of the T Lymphocyte response to mitogens. II. The Cellular Source of Potentiating Mediator(s). J. Exp. Med., 136-143]. It is based on the co-mitogenic action of IL-1 in the presence of an antigen (mimicked by phytohaemagglutinin in the test) on mouse thymocytes. 1.5×10^6 thymocytes of C3 H/HeJ mice (supplied by C.S.E.A.L. of Orleans) were cultured for 3 days in the presence of different dilutions of cell supernatants and lysates likely to contain IL-1 activity, and Wellcome PHA-P (1 μg/ml), in culture plates having 96 flat-bottomed wells, in a final volume of 200 μl of medium composed of RPMI 1640 containing, in addition to antibiotics (penicillin 1 μ/ml streptomycin 1000 μ/ml, 1 mM HEPES buffer, 2 mM glutamine, 5% calf serum and 5×10^-5 M 2-mercaptoethanol). After 68 hours of culturing, 1 μCi of tritiated thymidien was added to each well ([methyl^3 H]-thymidine, CEA Saclay, TMM79A, specific activity […]), and the radioactivity incorporated by the cells was measured after the cultures had been filtered on a Skaton type semi-automatic collecting apparatus and the filters counted in a scintillation counter (LKB). The results were expressed as the difference between the pulses per minute incorporated by the cultures in the presence of supernatants and the pulses per minute incorporated by the control cultures.

The test system of experiment [2] is monocytes. Briefly: Stimulation of monocytic cells; Tumor Necrosis Factor (TNF) test on supernatants (toxicity on L-929 target cells). Type of experiment: cell-based, human. The conditions noted are these: adherent blood monocytes cultured 24 or 48 hours with test product. As to the method:
as §1, §2
The technique was sensitized by adding actinomycin D to the test. The L cells were distributed in the proportion of 2×10^4 cells per well of a flat-bottomed microplate in 100 μl of RPMI 1640 medium enriched with 5% calf serum, glutamine, HEPES buffer and antibiotics. After 24 hours, different dilutions of the test supernatants were added in a volume of 100 μl, as well as a dose of actinomycin D of 1 μg/ml. After 24 hours of culturing, the number of unlysed viable cells was measured by staining the plates with crystal violet and measuring the optical density of different wells on a multiscan reader.

Structures can show the parent of a compound that is named as a salt.

As to `C=C(CC(N)C(=O)O)CC(NC(=O)CC[C@@H](NC(=O)[C@H](C)NC(=O)CCCCCCCCCCCCCCCCC)C(=O)O)C(=O)O` (stereo partly drawn) [Example 8, 2-Amino-4-methylene-6-[N-1-oxo-octadecyl)-L-alanyl)-γ-D-glutamyl-amino]-heptanedioic acid and its tri sodium salt], the “production of immuno-globulins in the presence of SAC” value in the experiment on human B lymphocytes is “capable of increasing the production of immuno-globulins”. Further, in the experiment on monocytes [1], the “stimulation of monocytes and their IL-1 production” value is listed as “stimulated”; the “synergy with interferon-γ and or LPS” value was “synergy”. Also, the “stimulation of monocytes and their TNF production” value in the experiment on monocytes [2] is listed as “stimulated”.
Consider `C=C(CC(N)C(=O)O)CC(NC(=O)CC[C@@H](NC(=O)CCCCCCCCCCCCCCCCC)C(=O)O)C(=O)O` (stereo partly drawn) [Example 9, 2-Amino-4-methylene-6-[[N-(1-oxo-octadecyl)-γ-D-glutamyl]amino]-heptanedioic acid], for which, in the experiment on monocytes [1], the “stimulation of monocytes and their IL-1 production” value is recorded as “stimulated”; the “synergy with interferon-γ and or LPS” value is recorded as “synergy”. Further, the “stimulation of monocytes and their TNF production” value in the experiment on monocytes [2] is reported as “stimulated”.
For `C=C(CC(N)C(=O)O)CC(NC(=O)CC[C@@H](N)C(=O)O)C(=O)O` (stereo partly drawn) [Example 1, 2-amino-6-(γ-D-glutamylamino)-4-methylene-heptanedioic acid], in the experiment on monocytes [1], the “stimulation of monocytes and their IL-1 production” value is recorded as “stimulated”; the “synergy with interferon-γ and or LPS” value is given as “synergy”. In addition, the “stimulation of monocytes and their TNF production” value in the experiment with monocytes [2] is listed as “stimulated”.
For `C=C(CC(NC(=O)CC[C@@H](N)C(=O)O)C(=O)O)CC(NC(=O)[C@H](C)N)C(=O)O` (stereo partly drawn) [Example 2, 2-(L-Alanylamino)-6-(γ-D-glutamylamino)-4-methyleneheptanedioic acid], in the experiment on monocytes [1], the “stimulation of monocytes and their IL-1 production” value is given as “stimulated”; the “synergy with interferon-γ and or LPS” value is “synergy”. Further, in the experiment on monocytes [2], the “stimulation of monocytes and their TNF production” value was “stimulated”.
